# Reference: PubChem BioAssay AID1918945 (Molecular Pharmacology Branch, DTP, NCI, 2023)
# pIC50: −log10 of the molar value.
# Test system: 883617-216-R-J1-PDC complex spheroid viability
# Assay: Anticancer human tumor 883617-216-R-J1-PDC patient-derived bladder carcinoma cell line growth inhibition
# Settings: for pIC50: curve of first compound; for viability, T/C: stronger effect = lower value
# From the text: Multicellular complex tumor spheroid response to LSD1 Inhibitor Iadademstat in combination with a variety of drugs and investigational agents in selected tumor cell lines
# The current study was undertaken to assess response to LSD1 inhibitors in combination with standard-of-care drugs and investigational agents in solid tumor complex spheroid models as well as in the K-562 leukemia. Complex spheroids include a stromal component modeled by human endothelial cells (HUVEC) and fibroblasts modeled by human mesenchymal stem cells (MSCs). The concentration ranges selected for each drug and investigational agent were based upon clinically achievable concentrations if the clinical Cmax of the agent was known.
# Compounds. The drugs and investigational agents used in this study are listed on Table 1. All of the agents used, including staurosporine (NSC755774) and gemcitabine (NSC613327), were obtained from the Developmental Therapeutics Program, NCI. FDA-approved anticancer drugs are available from the NCI at http://dtp.nci.nih.gov/branches/dscb/oncology_drugset_explanation.html. Drugs and investigational agents were >95% pure by proton nuclear magnetic resonance (NMR) and liquid chromatography/mass spectrometry (LC/MS). Stock solutions were prepared at 400x in DMSO, stored at -70 degrees C, and diluted in fresh medium prior to their use. The final concentration of DMSO in cell culture wells never exceeded 0.25% (v/v). The FDA-approved anticancer drug set is available from the Developmental Therapeutics Program at https://dtp.cancer.gov/organization/dscb/obtaining/available_plates.htm. All drugs and investigational agents were tested over a range starting from a high concentration at or near the clinical Cmax and decreasing in half-log increments. If the clinical Cmax for an agent had not been determined, the highest concentration tested was 10 microM.
# Cell Lines. The patient-derived cancer cell (PDC) lines: 292921-168-R-J2-PDC, K24384-001-R-PDC, and 521955-158-R2-J5-PDC pancreatic carcinomas, 556581-035-R-J1 ovarian carcinoma, 324938-238-R-J1-PDC, 855422-203-R-J1-PDC and 883617-216-R-J1-PDC urothelial bladder carcinomas, 743489-274-T-PDC renal cell carcinoma, 138582-R-J1 Merkel cell tumor, K60290-347-R-J1 and K57222-313-R-J1-PDC glioblastomas, 653999-131-R-J2-PDC, LG0703-F948-PDC, and 349418-098-R-PDC non-small cell lung carcinomas, 885512-296-R-J2-PDC, 171881-019-R-J1-PDC breast carcinomas and 186277-243-T-J2-PDC and 233499-124-R-J2-PDC colon carcinomas were obtained from the NCI Patient-Derived Models Repository (PDMR, https://pdmr.cancer.gov). The established cell lines NCI/ADR-RES (RRID:CVCL_14520 and OVCAR-5 (RRID:CVCL_1628) ovarian carcinomas, 786-O (RRID:CVCL_1051) and A498 (RRID:CVCL_A498) renal cell carcinoma, NCI-H211 (ATCC, cat. CRL-5824; RRID:CVCL_1529), NCI-H196 (ATCC, cat. CRL-5823, RRID:CVCL_1509), SW 1271 (ATCC, cat. CRL-2177, RRID:CVCL_1716) and NCI-H1876 (ATCC, cat. CRL-5902, RRID:CVCL_1503) small cell lung carcinomas, MDA-MB-231 (RRID:CVCL_0062) and MDA-MB-468 (RRID:CVCL_0419)breast carcinomas (10-12). Pooled donor human umbilical vein endothelial cells (HUVEC, Lonza, cat. CC-2519) and human mesenchymal stem cells (hMSC, Lonza, cat. PT-2501) were purchased from Lonza (Walkersville, MD).
# Cell Culture. All cells were maintained in an incubator at 37 degrees C and 5% CO2 with 95% humidity. The PDC lines were cultured according to standard operating procedures established by the NCI PDMR (https://pdmr.cancer.gov). Briefly all PDCs were thawed and cultured in Matrigel-coated flasks prepared with a working solution of 1X Ham's F-12 nutrient mix, without supplementation (Invitrogen, Waltham, MA, cat. 11765054), 100 U/mL penicillin-streptomycin (Invitrogen, cat. 15140122), and 2.5% Matrigel (Corning Inc., Corning, NY, cat. 354248) for the first three passages. […]
# [1] = second compound 0.1 µM, first compound 0.00316 µM
# [2] = second compound 0.1 µM, first compound 0.01 µM
# [3] = second compound 0.1 µM, first compound 0.0316 µM
# [4] = second compound 0.1 µM, first compound 0.1 µM
# [5] = second compound 0.316 µM, first compound 0.00316 µM
# [6] = second compound 0.316 µM, first compound 0.01 µM
# [7] = second compound 0.316 µM, first compound 0.0316 µM
# [8] = second compound 0.316 µM, first compound 0.1 µM
# [9] = second compound 1 µM, first compound 0.00316 µM
# [10] = second compound 1 µM, first compound 0.01 µM
# [11] = second compound 1 µM, first compound 0.0316 µM
# [12] = second compound 1 µM, first compound 0.1 µM
# [13] = second compound 3.16 µM, first compound 0.00316 µM
# [14] = second compound 3.16 µM, first compound 0.01 µM
# [15] = second compound 3.16 µM, first compound 0.0316 µM
# [16] = second compound 3.16 µM, first compound 0.1 µM
# [17] = second compound 10 µM, first compound 0.00316 µM
# [18] = second compound 10 µM, first compound 0.01 µM
# [19] = second compound 10 µM, first compound 0.0316 µM
# [20] = second compound 10 µM, first compound 0.1 µM
# 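Note: exposure lasted seven days after three days of spheroid growth.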
# 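Throughout, for viability, T/C: 100% = DMSO vehicle control luminescence.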
structure (smiles),measurement,setting,value
CC[C@@]1(O)C(=O)OCc2c1cc1n(c2=O)Cc2cc3c(CN(C)C)c(O)ccc3nc2-1 + NC1CC1c1ccc(-c2cccc(O)c2)cc1,pIC50,second compound 0.1 µM,8.67
same,pIC50,second compound 0.316 µM,8.65
same,pIC50,second compound 1 µM,8.68
same,pIC50,second compound 3.16 µM,8.85
same,pIC50,second compound 10 µM,9.06
same,"viability, T/C","second compound 0.1 µM, first compound 0.000316 µM",97.4%
same,"viability, T/C","second compound 0.1 µM, first compound 0.001 µM",61.4%
same,"viability, T/C",[1],45.5%
same,"viability, T/C",[2],30.5%
same,"viability, T/C",[3],24.3%
same,"viability, T/C",[4],19.4%
same,"viability, T/C","second compound 0.316 µM, first compound 0.000316 µM",94.8%
same,"viability, T/C","second compound 0.316 µM, first compound 0.001 µM",73.4%
same,"viability, T/C",[5],37.9%
same,"viability, T/C",[6],30.4%
same,"viability, T/C",[7],22.9%
same,"viability, T/C",[8],19.1%
same,"viability, T/C","second compound 1 µM, first compound 0.000316 µM",93.7%
same,"viability, T/C","second compound 1 µM, first compound 0.001 µM",71.5%
same,"viability, T/C",[9],36.9%
same,"viability, T/C",[10],27.2%
same,"viability, T/C",[11],24.6%
same,"viability, T/C",[12],21.2%
same,"viability, T/C","second compound 3.16 µM, first compound 0.000316 µM",93.8%
same,"viability, T/C","second compound 3.16 µM, first compound 0.001 µM",57.6%
same,"viability, T/C",[13],32.2%
same,"viability, T/C",[14],27.9%
same,"viability, T/C",[15],24.2%
same,"viability, T/C",[16],17.9%
same,"viability, T/C","second compound 10 µM, first compound 0.000316 µM",76.1%
same,"viability, T/C","second compound 10 µM, first compound 0.001 µM",42.2%
same,"viability, T/C",[17],35.3%
same,"viability, T/C",[18],26.6%
same,"viability, T/C",[19],24.2%
same,"viability, T/C",[20],16.9%
COc1cc(C2c3cc4c(cc3C(OC3OC5COC(C)OC5C(O)C3O)C3COC(=O)C23)OCO4)cc(OC)c1O (stereo not given) + NC1CC1c1ccc(-c2cccc(O)c2)cc1,pIC50,second compound 0.1 µM,6.79
same,pIC50,second compound 0.316 µM,6.81
same,pIC50,second compound 1 µM,7.03
same,pIC50,second compound 3.16 µM,7.12
same,pIC50,second compound 10 µM,7.24
same,"viability, T/C","second compound 0.1 µM, first compound 0.00949 µM",99.3%
same,"viability, T/C","second compound 0.1 µM, first compound 0.03 µM",73%
same,"viability, T/C","second compound 0.1 µM, first compound 0.0949 µM",56.1%
same,"viability, T/C","second compound 0.1 µM, first compound 0.3 µM",43.9%
same,"viability, T/C","second compound 0.1 µM, first compound 0.949 µM",35.4%
same,"viability, T/C","second compound 0.1 µM, first compound 3 µM",31.6%
same,"viability, T/C","second compound 0.316 µM, first compound 0.00949 µM",103%
same,"viability, T/C","second compound 0.316 µM, first compound 0.03 µM",79.6%
same,"viability, T/C","second compound 0.316 µM, first compound 0.0949 µM",55.6%
same,"viability, T/C","second compound 0.316 µM, first compound 0.3 µM",41.9%
same,"viability, T/C","second compound 0.316 µM, first compound 0.949 µM",39.8%
same,"viability, T/C","second compound 0.316 µM, first compound 3 µM",34.9%
same,"viability, T/C","second compound 1 µM, first compound 0.00949 µM",106%
same,"viability, T/C","second compound 1 µM, first compound 0.03 µM",81%
same,"viability, T/C","second compound 1 µM, first compound 0.0949 µM",48.8%
same,"viability, T/C","second compound 1 µM, first compound 0.3 µM",38.8%
same,"viability, T/C","second compound 1 µM, first compound 0.949 µM",41.3%
same,"viability, T/C","second compound 1 µM, first compound 3 µM",31.4%
same,"viability, T/C","second compound 3.16 µM, first compound 0.00949 µM",90.6%
same,"viability, T/C","second compound 3.16 µM, first compound 0.03 µM",67.7%
same,"viability, T/C","second compound 3.16 µM, first compound 0.0949 µM",43.7%
same,"viability, T/C","second compound 3.16 µM, first compound 0.3 µM",37.7%
same,"viability, T/C","second compound 3.16 µM, first compound 0.949 µM",33.5%
same,"viability, T/C","second compound 3.16 µM, first compound 3 µM",27.9%
same,"viability, T/C","second compound 10 µM, first compound 0.00949 µM",82.4%
same,"viability, T/C","second compound 10 µM, first compound 0.03 µM",59.5%
same,"viability, T/C","second compound 10 µM, first compound 0.0949 µM",37.4%
same,"viability, T/C","second compound 10 µM, first compound 0.3 µM",44.5%
same,"viability, T/C","second compound 10 µM, first compound 0.949 µM",31.9%
same,"viability, T/C","second compound 10 µM, first compound 3 µM",28.5%
Nc1ncn(C2CC(O)C(CO)O2)c(=O)n1 (stereo not given) + NC1CC1c1ccc(-c2cccc(O)c2)cc1,pIC50,second compound 0.1 µM,< 6.00
same,pIC50,second compound 0.316 µM,< 6.00
same,pIC50,second compound 1 µM,< 6.00
same,pIC50,second compound 3.16 µM,< 6.00
same,pIC50,second compound 10 µM,< 6.00
same,"viability, T/C",[1],104%
same,"viability, T/C",[2],101%
same,"viability, T/C",[3],87.3%
same,"viability, T/C",[4],75.2%
same,"viability, T/C","second compound 0.1 µM, first compound 0.316 µM",64.7%
same,"viability, T/C","second compound 0.1 µM, first compound 1 µM",56.8%
same,"viability, T/C",[5],110%
same,"viability, T/C",[6],108%
same,"viability, T/C",[7],87.5%
same,"viability, T/C",[8],76.5%
same,"viability, T/C","second compound 0.316 µM, first compound 0.316 µM",67.7%
same,"viability, T/C","second compound 0.316 µM, first compound 1 µM",65.1%
same,"viability, T/C",[9],110%
same,"viability, T/C",[10],122%
same,"viability, T/C",[11],96.8%
same,"viability, T/C",[12],83%
same,"viability, T/C","second compound 1 µM, first compound 0.316 µM",65.9%
same,"viability, T/C","second compound 1 µM, first compound 1 µM",56.1%
same,"viability, T/C",[13],107%
same,"viability, T/C",[14],114%
same,"viability, T/C",[15],92.9%
same,"viability, T/C",[16],74.8%
same,"viability, T/C","second compound 3.16 µM, first compound 0.316 µM",60.5%
same,"viability, T/C","second compound 3.16 µM, first compound 1 µM",51.8%
same,"viability, T/C",[17],107%
same,"viability, T/C",[18],86.5%
same,"viability, T/C",[19],74%
same,"viability, T/C",[20],64.5%
same,"viability, T/C","second compound 10 µM, first compound 0.316 µM",61.7%
same,"viability, T/C","second compound 10 µM, first compound 1 µM",52.1%
